The term IC50 denotes the midpoint of a concentration-inhibition curve. By CC50 is commonly meant the concentration giving 50% cytotoxicity.

Three compounds from ChEMBL document CHEMBL4033613, “Rearranged Terpenoids from the Marine Sponge Darwinella cf. oxeata and Its Predator, the Nudibranch Felimida grahami” (J Nat Prod, 2017) can be followed below.

Test [1] concerns Trypanosoma cruzi. Description: Antitrypanosomal activity against Trypanosoma cruzi intracellular amastigotes. Type of test: functional, cell-based.
In test [2] the test system is Trypanosoma cruzi. Description: Antitrypanosomal activity against Trypanosoma cruzi trypomastigotes. Format: functional.
Test [3] in a line: Cytotoxicity against mammalian NCTC cells. Particulars: Mammalia; call rule not given here. Format: functional.
[4] abbreviates: Trypanosoma cruzi, read-out: IC50.

`C[C@@H](C(=O)O)c1c([C@@]2(C)CCCC(C)(C)C2)ccc2c1CN(CC(=O)O)C2=O`: the IC50 result in the test on Trypanosoma cruzi [1] and in the test with Trypanosoma cruzi [2] was “Not Active” each time.
On to `C[C@@H](C(=O)O)c1c([C@@]2(C)CCCC(C)(C)C2)ccc2c1CN(C)C2=O`, for which the IC50 entry in the test on Trypanosoma cruzi [1] and in the test with Trypanosoma cruzi [2] was “Not Active” each time.
For `COC(=O)[C@H](C)c1c([C@@]2(C)CCCC(C)(C)C2)ccc2c1C(=O)OC2`, the IC50 amounted to 20 µM with Trypanosoma cruzi [1] (setting [4]) and 29 µM with Trypanosoma cruzi [2] (setting [4]). The midpoint of cytotoxicity in test [3], the CC50, lay at 54 µM.
